According to ChEMBL document CHEMBL5214953, “Structure-activity-relationship study of semi-synthetically modified fusicoccins on their stabilization effect for 14-3-3-phospholigand interactions” (Bioorg Med Chem, 2022):
Activity calls are given as the source filed them. The rule behind the calls is not given here.

Experiments:
[1] = Stabilization of mode-3 phosphopeptide FAM-KRSHpSV binding to recombinant 14-3-3 zeta (unknown origin) measured by fluorescence polarization assay; parameters: species or system Homo sapiens
[2] = Stabilization of mode-1 phosphopeptide FAM-KRSHpSVP binding to recombinant 14-3-3 zeta (unknown origin) measured by fluorescence polarization assay; parameters: species or system Homo sapiens
HL-60 [3] = assay: Antiproliferative activity against human HL-60 cells measured after 48 hrs by WST assay; format: functional, cell-based; settings: HL-60, 48 h
HEK293 = assay: Antiproliferative activity against human HEK293 cells at 5 to 80 uM measured after 48 hrs by WST assay; format: functional, cell-based; settings: dose 5-80 µM
HL-60 [4] = assay: Antiproliferative activity against human HL-60 cells at 5 to 80 uM measured after 48 hrs by WST assay; format: functional, cell-based; settings: dose 5-80 µM

Structure (SMILES)	Kd [1]	Kd [2]	IC50 (HL-60 [3])	Activity (HEK293)	Activity (HL-60 [4])
C=CC(C)(C)OC[C@H]1O[C@H](O[C@@H]2C3=C(C(C)C)C[C@H](OCc4ccc(C#N)cc4)[C@]3(C)/C=C3/[C@@H](COC)CC[C@H]3[C@@H](C)[C@H]2O)[C@H](O)[C@@H](O)[C@@H]1O	380 nM	710 nM	–	–	–
C=CC(C)(C)OC[C@H]1O[C@H](O[C@@H]2C3=C(C(C)C)C[C@H](OCc4ccccc4N=[N+]=[N-])[C@]3(C)/C=C3/[C@@H](COC)CC[C@H]3[C@@H](C)[C@H]2O)[C@H](O)[C@@H](O)[C@@H]1O	480 nM	680 nM	–	–	–
C=CC(C)(C)OC[C@H]1O[C@H](O[C@@H]2C3=C(C(C)C)C[C@H](OCc4ccccc4C(=O)OC)[C@]3(C)/C=C3/[C@@H](COC)CC[C@H]3[C@@H](C)[C@H]2O)[C@H](O)[C@@H](O)[C@@H]1O	530 nM	660 nM	–	–	–
CCOC[C@H]1CC[C@@H]2/C1=C\[C@@]1(C)CCC(C(C)C)=C1[C@@H](O[C@H]1O[C@@H]3COC(C)(C)O[C@H]3[C@H](O)[C@H]1O)[C@H](O)[C@@H]2C	–	750 nM	–	–	–
C=CC(C)(C)OC[C@H]1O[C@H](O[C@@H]2C3=C(C(C)C)C[C@H](OCc4ccccc4C(=O)O)[C@]3(C)/C=C3/[C@@H](COC)CC[C@H]3[C@@H](C)[C@H]2O)[C@H](O)[C@@H](O)[C@@H]1O	480 nM	540 nM	–	–	–
COC[C@H]1CC[C@@H]2/C1=C\[C@@]1(C)CCC(C(C)C)=C1[C@@H](O[C@H]1O[C@H](CNCc3ccccc3)[C@@H](O)[C@H](O)[C@H]1O)[C@H](O)[C@@H]2C	250 nM	310 nM	< 5000 nM	–	–
C=CC(C)(C)OC[C@H]1O[C@H](O[C@@H]2C3=C(C(C)C)C[C@H](OCc4ccc(C(=O)O)cc4)[C@]3(C)/C=C3/[C@@H](COC)CC[C@H]3[C@@H](C)[C@H]2O)[C@H](O)[C@@H](O)[C@@H]1O	390 nM	470 nM	–	–	–
COC[C@H]1CC[C@@H]2/C1=C\[C@@]1(C)CCC(C(C)C)=C1[C@@H](O[C@H]1O[C@@H]3CO[C@@H](OCCCN)[C@@H]3[C@H]1O)[C@H](O)[C@@H]2C	–	–	10000 nM	–	–
COC[C@H]1CC[C@@H]2/C1=C\[C@@]1(C)CCC([C@H](C)CNC(=O)C3CCCCC3)=C1[C@@H](O[C@H]1O[C@@H]3COC(C)(C)O[C@H]3[C@H](O)[C@H]1O)[C@H](O)[C@@H]2C	32 nM	130 nM	–	Active	–
C=CC(C)(C)OC[C@H]1O[C@H](O[C@@H]2C3=C([C@H](C)CNC(C)=O)C[C@H](O)[C@]3(C)/C=C3/[C@@H](COC)CC[C@H]3[C@@H](C)[C@H]2O)[C@H](O)[C@@H](O)[C@@H]1O	38 nM	170 nM	–	–	–
COC[C@H]1CC[C@@H]2/C1=C\[C@@]1(C)CCC([C@H](C)CNC(C)=O)=C1[C@@H](O[C@H]1O[C@@H]3COC(C)(C)O[C@H]3[C@H](O)[C@H]1O)[C@H](O)[C@@H]2C	44 nM	110 nM	–	Active	–
COC[C@H]1CC[C@@H]2/C1=C\[C@@]1(C)CCC(C(C)C)=C1[C@@H](O[C@H]1O[C@@H]3COC(C)(C)O[C@H]3[C@H](O)[C@H]1O)[C@H](O)[C@@H]2C	96 nM	230 nM	–	Active	–
COC[C@H]1CC[C@@H]2/C1=C\[C@@]1(C)CCC([C@H](C)CNC(=O)C3CC3)=C1[C@@H](O[C@H]1O[C@@H]3COC(C)(C)O[C@H]3[C@H](O)[C@H]1O)[C@H](O)[C@@H]2C	41 nM	110 nM	–	Active	–
C=CC(C)(C)OC[C@H]1O[C@H](O[C@@H]2C3=C(C(C)C)C[C@H](O)[C@]3(C)/C=C3/[C@@H](COC)CC[C@H]3[C@@H](C)[C@H]2O)[C@H](O)[C@@H](O)[C@@H]1O	77 nM	430 nM	–	–	–
CC(C)OC[C@H]1CC[C@@H]2/C1=C\[C@@]1(C)CCC(C(C)C)=C1[C@@H](O[C@H]1O[C@@H]3COC(C)(C)O[C@H]3[C@H](O)[C@H]1O)[C@H](O)[C@@H]2C	–	680 nM	–	–	–
COC[C@H]1CC[C@@H]2/C1=C\[C@@]1(C)CCC(C(C)C)=C1[C@@H](O[C@H]1O[C@H](CN)[C@@H](O)[C@H](O)[C@H]1O)[C@H](O)[C@@H]2C	70 nM	60 nM	–	–	Active
COC[C@H]1CC[C@@H]2/C1=C\[C@@]1(C)CCC([C@H](C)CNC(=O)C(F)(F)F)=C1[C@@H](O[C@H]1O[C@@H]3COC(C)(C)O[C@H]3[C@H](O)[C@H]1O)[C@H](O)[C@@H]2C	42 nM	80 nM	–	Active	–
C=CC(C)(C)OC[C@H]1O[C@H](O[C@@H]2C3=C(C(C)C)C[C@H](OCc4ccc(N=[N+]=[N-])cc4)[C@]3(C)/C=C3/[C@@H](COC)CC[C@H]3[C@@H](C)[C@H]2O)[C@H](O)[C@@H](O)[C@@H]1O	320 nM	620 nM	–	–	–
C=CC(C)(C)OC[C@H]1O[C@H](O[C@@H]2C3=C(C(C)C)C[C@H](OCc4ccc(C(=O)OC)cc4)[C@]3(C)/C=C3/[C@@H](COC)CC[C@H]3[C@@H](C)[C@H]2O)[C@H](O)[C@@H](O)[C@@H]1O	600 nM	680 nM	–	–	–
CC(C)C1=C2[C@@H](O[C@H]3O[C@@H]4COC(C)(C)O[C@H]4[C@H](O)[C@H]3O)[C@H](O)[C@H](C)[C@@H]3CC[C@H](COC(F)(F)F)/C3=C/[C@@]2(C)CC1	–	650 nM	–	–	–
CCCNC[C@H]1O[C@H](O[C@@H]2C3=C(C(C)C)CC[C@]3(C)/C=C3/[C@@H](COC)CC[C@H]3[C@@H](C)[C@H]2O)[C@H](O)[C@@H](O)[C@@H]1O	120 nM	160 nM	–	–	Active
